Results reported in patent US20250354297A1, “SHIELDED SMALL NUCLEOTIDES FOR INTRACELLULAR BARCODING” (BOARD OF REGENTS, THE UNIVERSITY OF TEXAS SYSTEM, priority 2021, published 2025).

Tests used:
CD19.28z CAR T cells [1] = test: 8-plex CAR T SSN-seq ex vivo (infusion product); format: cell-based, human; conditions: 5 μM TWS119, 0.15 μM JQ1; CCR7, SELL, TCF7
Experimental: Pooled/sorted cells were processed for single-cell RNA sequencing at using Chromium Next GEM Single Cell 3′ Reagent Kit V3.1 (with feature barcoding technology for CRISPR screening), following the manufacturer's protocol. For enrichSSN amplification, a primer specific to the 5′ shield sequence was used (see FIG. 16A) and PCR was performed following 10× Genomics protocol for “Feature PCR” with 15 or 19 amplification cycles. Pooled libraries (the 3′ gene expression library and the sgRNA/SSN library, at a 4:1 ratio) were sequenced with a NovaSeq6000 SP-100 flow cell (Illumina) for each scRNA-seq experiment.
scRNA-seq data were preprocessed. In brief, gene expressing reads were aligned to the GRCh38 genome (human) and/or mm 10 genome (mouse) using the 10× Genomics Cell Ranger (version 6.0.2, 6.1.1 and 6.1.2), with the cellranger count pipeline. sgRNA/SSN counts were retrieved by cellranger count using the pattern containing unique group barcodes and constant sequences derived from the sgRNA/SSN scaffold. […] To ensure a fair quantitative comparison, sgRNA/SSN UMI counts shown across different experiments were restricted to the raw output of cellranger count. Filtered feature-barcode matrices were further analyzed in R using Seurat (version 4.0.3). In general, genes detected in less than three cells and cells expressing <200 or >7,000 RNA features (genes) were filtered out. […]

CD19.28z CAR T cells [2] = test: Flow cytometry of T cell memory markers CCR7 and CD45RA in 8-plex CAR T cells; format: cell-based, human; conditions: 5 μM TWS119, 0.15 μM JQ1, day 8
Experimental: 8-plex CAR T SSN-seg ex vivo (infusion product). Twenty-four hours after activation, human primary T cells were transduced with lentiviral vectors (see FIG. 16B). Transduced T cells were cultured in the presence of 5 μM TWS119, 0.15 μM JQ1, the combination of TWS119 and JQ1 (Combo), or DMSO (Mock) controls. CAR T cells in four treatment groups were expanded in culture media supplemented with IL2 or IL7 plus IL15 (denoted as IL7×15) cytokines. Culture media containing small molecule inhibitors and cytokines were replenished every other day. CAR T cells were maintained at a concentration of 0.5 to 1×10^6 cells per ml. On day 8, expression of T cell memory makers (CCR7 and CD45RA) was evaluated in all treatment groups using flow cytometry. Then, CAR T cells in all groups were counted and pooled at equal ratios. To enrich CAR^+ population a cell surface reporter NGFR^+ was utilized to FACS purify CAR T cells before scRNA-seq analysis. Aliquots of the pooled samples were also injected into tumor mice. Remaining CAR T cells were cryopreserved in CryoStor CS10 media (Stem Cell Technologies).

Row | SMILES | enriched genes in transcriptome analysis (CD19.28z CAR T cells [1]) | naïve and central memory markers (CCR7, CD45RA) (CD19.28z CAR T cells [2])
1 | Cc1sc2c(c1C)C(c1ccc(Cl)cc1)=N[C@@H](CC(=O)OC(C)(C)C)c1nnc(C)n1-2 [JQ1] | enriched in memory-related genes | enrichment of naïve and central memory markers
2 | Nc1cccc(-c2cc3c(Oc4cccc(O)c4)ncnc3[nH]2)c1 [TWS119] | enriched in memory-related genes | enrichment of naïve and central memory markers
